Source: article PMC6272504, “Inhibitory Effects of Neochamaejasmin B on P-Glycoprotein in MDCK-hMDR1 Cells and Molecular Docking of NCB Binding in P-Glycoprotein” (Molecules, 2015)

Target: T1, P-glycoprotein (Homo sapiens, UniProt P08183)
T1 construct: gene ABCB1
Test: Rhodamine-123 accumulation kinetics (Lineweaver-Burk) and bidirectional transport in MDCK-hMDR1 cells
Type: cell-based

T1 sequence (P08183 whole entry): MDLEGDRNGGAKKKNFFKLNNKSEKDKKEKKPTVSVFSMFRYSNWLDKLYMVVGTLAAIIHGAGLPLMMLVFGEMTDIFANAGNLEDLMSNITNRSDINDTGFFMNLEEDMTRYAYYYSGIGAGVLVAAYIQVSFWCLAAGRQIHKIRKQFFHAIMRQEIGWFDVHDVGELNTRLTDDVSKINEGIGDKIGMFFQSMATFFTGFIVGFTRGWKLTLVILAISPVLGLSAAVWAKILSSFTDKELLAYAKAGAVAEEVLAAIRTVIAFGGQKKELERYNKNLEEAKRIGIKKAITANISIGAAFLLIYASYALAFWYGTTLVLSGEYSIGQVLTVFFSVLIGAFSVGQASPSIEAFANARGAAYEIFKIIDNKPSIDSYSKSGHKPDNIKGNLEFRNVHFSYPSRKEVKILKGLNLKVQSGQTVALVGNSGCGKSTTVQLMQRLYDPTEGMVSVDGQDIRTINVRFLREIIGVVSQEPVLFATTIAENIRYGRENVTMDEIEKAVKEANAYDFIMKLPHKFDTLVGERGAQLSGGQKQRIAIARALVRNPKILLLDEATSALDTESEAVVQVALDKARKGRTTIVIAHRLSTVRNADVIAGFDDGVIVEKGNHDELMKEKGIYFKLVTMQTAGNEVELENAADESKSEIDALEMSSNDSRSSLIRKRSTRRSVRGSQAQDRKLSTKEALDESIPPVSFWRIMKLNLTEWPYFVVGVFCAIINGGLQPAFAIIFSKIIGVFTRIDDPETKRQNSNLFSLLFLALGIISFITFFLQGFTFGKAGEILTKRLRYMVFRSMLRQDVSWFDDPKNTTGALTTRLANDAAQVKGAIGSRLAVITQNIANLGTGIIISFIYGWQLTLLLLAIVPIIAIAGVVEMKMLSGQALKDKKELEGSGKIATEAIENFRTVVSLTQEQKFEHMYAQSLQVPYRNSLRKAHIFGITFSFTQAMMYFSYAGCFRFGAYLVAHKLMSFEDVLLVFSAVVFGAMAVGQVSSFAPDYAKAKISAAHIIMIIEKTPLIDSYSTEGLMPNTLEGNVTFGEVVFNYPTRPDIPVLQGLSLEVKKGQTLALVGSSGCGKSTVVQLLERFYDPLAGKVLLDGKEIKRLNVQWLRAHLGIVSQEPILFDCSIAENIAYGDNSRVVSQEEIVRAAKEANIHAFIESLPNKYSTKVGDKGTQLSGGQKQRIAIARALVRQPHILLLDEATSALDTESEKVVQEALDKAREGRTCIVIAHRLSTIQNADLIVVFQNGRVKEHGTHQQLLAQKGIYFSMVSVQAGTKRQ

Ki: 45.2 µM
SMILES: O=C1c2c(O)cc(O)cc2O[C@H](c2ccc(O)cc2)[C@@H]1[C@@H]1C(=O)c2c(O)cc(O)cc2O[C@H]1c1ccc(O)cc1 [NCB, Neochamaejasmin B]
